In patent US20150272939A1, “Identification of Small Molecule Inhibitors of Jumonji AT-Rich Interactive Domain 1A (JARID1A) and 1B (JARID1B) Histone Demethylase” (Yale University, priority 2012, published 2015):
“And” between values parts separate entries of the source, which are not always exact repeats. Identical values can stand only once.

What was measured:
[1] = biological target: T1, JARID1B (Homo sapiens, UniProt Q9UGL1); assay: FLAG-JARID1B histone demethylase assay with AlphaScreen detection (HTS and dose response); format: biochemical; details: for Assay − Artifact Signal (percent): assay signal minus artifact signal; for inhibition at 20 µM / Inhibitory effect (percent): high-throughput screen, compound 20 μM, standard demethylase conditions (10 μM α-KG, 50 μM Fe (II)); for inhibition at 20 µM: read-out: Inhibitory effect (percent); for Assay Signal (percent) / Validation result of HTS active: effect of the compound in the JARID1B AlphaScreen demethylase assay: validation of HTS actives; for Assay Signal (percent): effect of compound in JARID1B AlphaScreen assay; for Validation result of HTS active: effect of the compound in the JARID1B AlphaScreen demethylase assay: total signal before subtraction of artifact signal;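 as to Assay Signal (percent): compound tested at 20 µM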;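 as to Assay − Artifact Signal (percent): compound tested at 20 µM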;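 as to all read-outs here: FLAG-tagged JARID1B at 4 nM acting on a biotinylated H3K4me3 peptide, demethylation read by AlphaScreen luminescence, with hits checked against bio-H3K4me2 without enzyme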
T1 construct: The FLAG tagged full length JARID1B enzyme was expressed in Sf21 insect cells using FLAG-JARID1B baculoviruses; FLAG (N); made in house; host or cells: Sf21 insect cells (baculovirus)

[2] = AlphaScreen counterscreen against bio-H3K4me2 peptide in the absence of enzyme (artifact signal); details: for Artifact Signal (percent): effect of the compound when incubated with bio-H3K4me2 peptide (counterscreen, no enzyme); for Artifact signal: effect of the compound when it is incubated with bio-H3K4me2 peptide: counterscreen, no enzyme;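 as to all read-outs here: counterscreen run without enzyme against bio-H3K4me2 peptide to remove false positive hits from the JARID1 demethylase AlphaScreen screen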

T1 sequence (Q9UGL1 whole entry): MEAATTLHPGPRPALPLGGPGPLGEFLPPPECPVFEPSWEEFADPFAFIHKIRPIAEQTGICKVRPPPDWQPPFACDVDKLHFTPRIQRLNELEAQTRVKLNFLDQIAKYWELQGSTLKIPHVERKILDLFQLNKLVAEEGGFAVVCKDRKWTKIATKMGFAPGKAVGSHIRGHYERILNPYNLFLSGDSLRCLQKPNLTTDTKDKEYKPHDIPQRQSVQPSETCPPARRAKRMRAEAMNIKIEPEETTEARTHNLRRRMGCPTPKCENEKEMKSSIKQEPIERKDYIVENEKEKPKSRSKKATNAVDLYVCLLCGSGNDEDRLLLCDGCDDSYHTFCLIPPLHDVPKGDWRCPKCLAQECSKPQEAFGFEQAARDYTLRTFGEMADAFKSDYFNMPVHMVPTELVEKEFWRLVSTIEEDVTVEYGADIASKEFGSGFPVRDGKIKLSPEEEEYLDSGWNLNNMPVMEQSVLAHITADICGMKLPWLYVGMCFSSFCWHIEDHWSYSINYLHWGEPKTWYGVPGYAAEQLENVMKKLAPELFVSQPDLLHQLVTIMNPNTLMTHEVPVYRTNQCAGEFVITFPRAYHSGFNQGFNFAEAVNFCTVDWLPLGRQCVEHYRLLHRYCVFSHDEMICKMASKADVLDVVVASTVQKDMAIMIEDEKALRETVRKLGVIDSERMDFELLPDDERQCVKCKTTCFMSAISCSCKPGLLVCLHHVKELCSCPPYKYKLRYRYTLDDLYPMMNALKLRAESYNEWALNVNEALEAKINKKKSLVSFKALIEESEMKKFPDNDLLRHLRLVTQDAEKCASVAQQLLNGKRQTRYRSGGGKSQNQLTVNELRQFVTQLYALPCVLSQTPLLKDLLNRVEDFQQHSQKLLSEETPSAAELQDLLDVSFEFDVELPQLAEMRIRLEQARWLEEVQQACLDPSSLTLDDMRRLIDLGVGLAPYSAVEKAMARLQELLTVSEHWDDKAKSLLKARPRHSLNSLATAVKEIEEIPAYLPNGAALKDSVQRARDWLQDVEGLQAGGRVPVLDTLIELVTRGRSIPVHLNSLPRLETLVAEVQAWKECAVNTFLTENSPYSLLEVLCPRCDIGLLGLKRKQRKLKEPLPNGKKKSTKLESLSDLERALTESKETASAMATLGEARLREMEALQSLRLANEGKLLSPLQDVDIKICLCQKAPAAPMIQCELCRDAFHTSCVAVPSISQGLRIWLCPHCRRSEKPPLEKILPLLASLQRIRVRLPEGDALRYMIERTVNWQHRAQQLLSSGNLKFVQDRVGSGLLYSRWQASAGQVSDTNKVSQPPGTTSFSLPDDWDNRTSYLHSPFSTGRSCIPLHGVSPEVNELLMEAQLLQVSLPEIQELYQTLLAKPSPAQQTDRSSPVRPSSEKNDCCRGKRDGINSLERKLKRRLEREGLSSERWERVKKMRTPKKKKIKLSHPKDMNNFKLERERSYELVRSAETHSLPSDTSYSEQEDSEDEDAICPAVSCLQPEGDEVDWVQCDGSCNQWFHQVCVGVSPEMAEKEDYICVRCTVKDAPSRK

Fc1cccc(Cl)c1CNn1cnnc1S [YU146768]
Assay − Artifact Signal (percent) [1]: 49.49% | inhibition at 20 µM [1]: 34% | Assay Signal (percent) [1]: 48.97% | Artifact Signal (percent) [2]: −0.52%

CC(NC(=O)c1ccco1)c1ccncc1 (centres unmarked) [YU145239]
inhibition at 20 µM [1]: 42.4% | Validation result of HTS active: effect of the compound in the JARID1B AlphaScreen demethylase assay [1]: 7.68 | Artifact signal: effect of the compound when it is incubated with bio-H3K4me2 peptide [2]: 0.21

O=c1oc2c(O)c(O)cc3c(=O)oc4c(O)c(O)cc1c4c23 [YU034320, ELLAGIC ACID, reference compound]
Assay − Artifact Signal (percent) [1]: 9.70% | Inhibitory effect (percent) [1]: 61.25% and 40.88% | Assay Signal (percent) [1]: 12.08% | Validation result of HTS active: effect of the compound in the JARID1B AlphaScreen demethylase assay [1]: 37.80 | Artifact signal: effect of the compound when it is incubated with bio-H3K4me2 peptide [2]: 31.44 | Artifact Signal (percent) [2]: 2.37%

S=C(Nc1cccc(Cl)c1Cl)Nn1cnnc1 [YU149002]
Assay − Artifact Signal (percent) [1]: 12.28% | inhibition at 20 µM [1]: 37.9% | Assay Signal (percent) [1]: 15.58% | Artifact Signal (percent) [2]: 3.30%

Oc1c(C(Nc2ccccc2Cl)c2cccnc2)ccc2cccnc12 (centres unmarked) [YU172164]
Assay − Artifact Signal (percent) [1]: 11.14% | inhibition at 20 µM [1]: 56% | Assay Signal (percent) [1]: 47.38% | Artifact Signal (percent) [2]: 36.24%

O=C(O)CC(CC(=O)Nc1cc(C(F)(F)F)ccc1N1CCOCC1)c1ccccc1 (centres unmarked) [YU016748]
Assay − Artifact Signal (percent) [1]: 8.43% | inhibition at 20 µM [1]: 104% | Assay Signal (percent) [1]: 19.64% | Artifact Signal (percent) [2]: 11.20%

CC(=O)[C@]1(O)Cc2c(O)c3c(c(O)c2[C@@H](O[C@H]2C[C@H](N)[C@H](O)[C@H](C)O2)C1)C(=O)c1ccccc1C3=O.Cl (stereo in doubt) [YU040321, IDARUBICIN HCl, reference compound]
inhibition at 20 µM [1]: 92.3% | Validation result of HTS active: effect of the compound in the JARID1B AlphaScreen demethylase assay [1]: −11.32 | Artifact signal: effect of the compound when it is incubated with bio-H3K4me2 peptide [2]: −9.53

N.N.[Cl][Pt][Cl] [YU034538, CISPLATIN, reference compound]
Assay − Artifact Signal (percent) [1]: 40.64% | Inhibitory effect (percent) [1]: 40.06% | Assay Signal (percent) [1]: 49.17% | Artifact Signal (percent) [2]: 8.53%

O=C(O[C@@H]1Cc2c(O)cc(O)cc2O[C@@H]1c1ccc(O)c(O)c1)c1cc(O)c(O)c(O)c1 [YU153085, EPICATECHIN MONOGALLATE, reference compound]
Assay − Artifact Signal (percent) [1]: 8.72% | Assay Signal (percent) [1]: 94.59% | Artifact Signal (percent) [2]: 85.87%

c1cc(CNc2ccc(N3CCOCC3)cc2)ccn1 [YU129874]
Assay − Artifact Signal (percent) [1]: 67.88% | inhibition at 20 µM [1]: 74.5% | Assay Signal (percent) [1]: 72.06% | Artifact Signal (percent) [2]: 4.18%

O=C(NC(=S)NCc1ccccc1)C1CCCC1 [YU147054]
Assay − Artifact Signal (percent) [1]: 24.52% | inhibition at 20 µM [1]: 33.9% | Assay Signal (percent) [1]: 22.98% | Artifact Signal (percent) [2]: −1.54%

CC(C)n1c(-c2ccccc2F)n[nH]c1=S [YU145747]
Assay − Artifact Signal (percent) [1]: 31.49% | inhibition at 20 µM [1]: 31.3% | Assay Signal (percent) [1]: 36.22% | Artifact Signal (percent) [2]: 4.74%

N#CC(=Cc1ccc(-c2ccccc2)o1)C(N)=S [YU146534]
Assay − Artifact Signal (percent) [1]: 10.89% | inhibition at 20 µM [1]: 32.8% | Assay Signal (percent) [1]: 15.42% | Artifact Signal (percent) [2]: 4.53%

CCCSc1nc2c3c(sc2c(=O)[nH]1)CC(C)(CC)OC3 (centres unmarked) [YU153031]
Assay − Artifact Signal (percent) [1]: 9.19% | inhibition at 20 µM [1]: 97% | Assay Signal (percent) [1]: 9.27% | Artifact Signal (percent) [2]: 0.09%

Oc1cccc(C(=S)N2CCN(Cc3ccccc3)CC2)c1 [YU151559]
Assay − Artifact Signal (percent) [1]: 18.39% | inhibition at 20 µM [1]: 36.9% | Assay Signal (percent) [1]: 27.61% | Artifact Signal (percent) [2]: 9.22%

COc1ccccc1NC(=O)COc1ccc(CO)cc1Cl [YU152649]
inhibition at 20 µM [1]: 99% | Validation result of HTS active: effect of the compound in the JARID1B AlphaScreen demethylase assay [1]: 6.08 | Artifact signal: effect of the compound when it is incubated with bio-H3K4me2 peptide [2]: 0.22
